The text below walks through data of patent US20100021392A1, “Vapor-phase application of spinosyn for the control of pest, and formulations and products utilizing the same” (priority 2006, published 2010).

The subject of series [1] is mammals. The following applies: cited from earlier work.
Series [2] deals with fish. Particulars: in vivo; cited from earlier work.
For series [3], the system named is birds. Particulars: in vivo; cited from earlier work.
Series [4] concerns mammals. Particulars: in vivo; cited from earlier work.
Series [5] in a line: Evaporation of liquid formulation from bottle with ceramic wick on diffuser. The following applies: equal to 1 gram of mixture, diffuser 125°-150° C. The class given is physicochemical. As to the method: PET plastic bottles were then each filled with 24 grams of the above formulation. A plastic insert and ceramic wick were then placed in the opening of the bottle and the bottle was screwed onto a common diffuser. The diffuser was operated at a temperature ranging from 125°-150° C. […] The remainder of the mixture in the bottle was then analyzed by HPLC. […] The bottle was then plugged off and stored for 12 additional hours. The bottle was again screwed onto a common diffuser, and the diffuser was operated at a temperature of 125°-150° C.

A short description of series [6]: Evaporation test of spinosad from impregnated paper mats on mat diffusers (HPLC). The series is classed as physicochemical. The following applies: Example 1 mat, initial 80 mgs per mat; for Percentage of Spinosad Evaporated: 8 h. As to the method:
Paper mats having dimensions of 35 mm (length)×21.5 mm (width)×2.5 mm (thickness) were then gradually impregnated with 0.84-1.70 grams of the above upper phase mixture (depending on its content in spinosad) so as to have approximately 80 mgs of pure spinosad per mat. The mats were left at a temperature of approximately 30° C. for 3 hours during which time most of the ethyl alcohol was evaporated. Next the mats were closed within foil comprising metallized polyethylene terepthalate PET 12 μm/adhesive/PET 35 μm. The mats were allowed to rest for 24 hours to allow for complete spread of the liquid material within the paper. Evaporation tests were then run as follows:
The foil was opened and a mat was removed. The mat was checked by HPLC to confirm its spinosad content. As was theoretically expected, 80 mgs of pure spinosad per mat were found. Four mats of this batch were then placed on common mat diffusers having a temperature ranging from 130° C. to 160° C. The amount of spinosad remaining on the mat was checked after each of 2, 4, and 8 hours of diffuser operation.
The foil was opened and a mat was removed. The mat was checked by HPLC to confirm the content of spinosad. As was theoretically expected, 11 mgs of pure spinosad per mat were found. Four mats were then placed on common mat diffusers having a temperature ranging from 130° C. to 160° C. The amount of spinosad remaining on the mat was checked after each of 2, 4, and 8 hours of operation.
The foil was opened and a mat was removed. The mat was checked by HPLC to confirm the content of spinosad. As was theoretically expected, 10 mgs of pure spinosad per mat was found. Four mats were then placed on common mat diffusers having a temperature ranging from 130° C. to 160° C. The amount of spinosad remaining on the mat was checked after each of 2, 4, and 8 hours of operation.

For series [7] the following is noted: at 25° C.; cited from earlier work.

For the compound Spinosad, the chronic toxicology findings entry in series [1] was “not carcinogenic, teratogenic, mutagenic, or neurotoxic”. Further, the toxicity to fish entry in series [2] is recorded as “only slightly toxic”. For the same compound, in series [3], the toxicity to birds result was “relatively low”. The toxicity to mammals result in series [4] is listed as “relatively low”. Besides, the “pure spinosad evaporated after 8 hours” value in series [5] was 20 mgs. Besides, the figures for the “Percentage of Spinosad Evaporated” value in series [6] (diffuser temperature 130° C.), in series [6] (diffuser temperature 140° C.) and in series [6] (diffuser temperature 160° C.) were 75%, 85% and 98%, respectively. Moreover, the results for the “Quantity of Spinosad Remained on mat after 8 h of operation” value in series [6] (diffuser temperature 130° C.), in series [6] (diffuser temperature 140° C.) and in series [6] (diffuser temperature 160° C.) were 20 mgs, 12 mgs and 2 mgs, respectively.

As to `CC[C@H]1CCC[C@H](O[C@H]2CC[C@H](N(C)C)[C@@H](C)O2)[C@@H](C)C(=O)C2=C[C@@H]3[C@@H](C=C[C@@H]4C[C@@H](O[C@@H]5O[C@@H](C)[C@H](OC)[C@@H](OC)[C@H]5OC)C[C@@H]34)[C@@H]2CC(=O)O1` [spinosyn A], the vapor pressure in series [7] is on record as 2.4 ×10^−10 mmHg.
